Data taken from publication PMC7922706, “New Inhibitory Effects of Cilnidipine on Microglial P2X7 Receptors and IL-1β Release: An Involvement in its Alleviating Effect on Neuropathic Pain” (Cells, 2021).
Where two headings read alike, the source gives them in different places.

Target: T1, rat P2X7R (Rattus norvegicus, UniProt Q64663)
T1 construct: gene P2rx7; rP2X7R (NM_019256) stably expressed in 1321N1 cells
T1 sequence (Q64663 1-595): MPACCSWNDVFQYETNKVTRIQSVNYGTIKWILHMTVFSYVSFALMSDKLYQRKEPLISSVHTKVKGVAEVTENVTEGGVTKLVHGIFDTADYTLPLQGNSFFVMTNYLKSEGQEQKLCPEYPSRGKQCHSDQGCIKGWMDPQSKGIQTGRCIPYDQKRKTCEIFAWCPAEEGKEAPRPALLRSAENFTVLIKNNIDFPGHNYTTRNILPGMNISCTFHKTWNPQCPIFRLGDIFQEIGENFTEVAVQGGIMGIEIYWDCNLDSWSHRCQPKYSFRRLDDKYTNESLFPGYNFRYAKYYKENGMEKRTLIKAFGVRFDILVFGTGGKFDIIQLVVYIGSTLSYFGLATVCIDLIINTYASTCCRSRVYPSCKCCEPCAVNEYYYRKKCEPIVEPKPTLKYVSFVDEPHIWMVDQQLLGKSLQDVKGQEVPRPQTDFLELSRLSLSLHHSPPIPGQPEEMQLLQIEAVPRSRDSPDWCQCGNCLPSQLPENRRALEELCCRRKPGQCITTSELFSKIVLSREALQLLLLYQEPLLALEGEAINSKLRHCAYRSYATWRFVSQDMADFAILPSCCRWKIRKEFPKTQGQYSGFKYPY
Assay: single-cell Fura-2 Ca2+ imaging, BzATP-stimulated rP2X7R-1321N1 cells
Format: cell-based

| SMILES | IC50 (read-out: IC50) | IC50 |
| --- | --- | --- |
| COCCOC(=O)C1=C(C)NC(C)=C(C(=O)OC/C=C/c2ccccc2)C1c1cccc([N+](=O)[O-])c1 (racemic) [CNP, 2-Methoxyethyl(E)-3-phenyl-2-propen-1-yl(±)-1,4-dihydro-2,6-dimethyl-4-(3-nitrophenyl)pyridine-3,5-dicarboxylate] | 130 nM |  |
| CCc1oc2ccccc2c1C(=O)c1cc(Br)c(O)c(Br)c1 [BBR, benzbromarone] |  | 250 nM |
| COc1cc(C(=O)NS(=O)(=O)c2ccccc2C)ccc1Cc1cn(C)c2ccc(NC(=O)OC3CCCC3)cc12 [ZFK, zafirlukast] | 220 nM |  |
